Where two headings read alike, the source gives them in different places.
Key:
[1] = tested on: dysplastic oral keratinocyte (DOK) cells; test: Growth inhibition (IC50) and combination index in dysplastic oral keratinocyte cells; type: cell-based; details: single agent, read-out: IC50 concentration
Description: Cells were plated in 96-well plates for one day and received drug treatments for 3 days. The plating cell densities were 2,000 cells/well for human cancer cell lines, 3,000 cells/well for tumor sphere cells, and 10,000 cells/well for primary tumor cells. Following the addition of MTT solutions (10 μl, 5 mg/ml), cells were incubated for 4 hours to allow MTT to be metabolized to formazan. Formazan was then dissolved in DMSO and measured by spectrophotometer at 560 nm.
The tumor growth-inhibitory curves of individual drugs were first measured by the MTT assay over a range of five concentrations with three-fold increment. The half-inhibitory concentrations (IC50) were calculated by Calcusyn program (Biosoft, Ferguson, Mo.). The combined effects were measured by mixing two drugs at the 4:1, 2:1, 1:1, 1:2, or 1:4 ratio of their respective IC50 concentrations. Each combination was tested for its tumor growth-inhibitory effect over a range of five different dosages, and calculated for its CI using the Calcusyn program.

MDA-MB-231 cells = test: BrdU labeling (cell proliferation) in MDA-MB-231 cells; type: cell-based, human; details: 5-FU 0.15 ug/ml alone or MPA 0.19 uM alone
Description: Primary antibodies used for immunofluorescence included rabbit anti-NS (Ab138, Cocalico), rat anti-BrdU (BU1/75, Accurate), and mouse anti-fibrillarin (38F3, EnCor) antibodies. To measure cell proliferation, cultures were treated with bromodeoxyuridine (BrdU, Accurate, OBT0030) 1 hour before harvest.

pre-rRNA transcripts = test: Real-time RT-PCR of pre-rRNA transcripts; type: cell-based
Description: The AC(t) values between the target message and two reference messages (HMG-14 and […]) were determined using the MyiQ single-color real-time PCR detection system and supermix SYBR green reagent. The AAC(t) values were measured from two biological replicates and two technical repeats (n=4). Primer sequences are: SJ1, 5′-[…]-3′ and 5′-[…]-3′; SJ2, 5′-[…]-3′ and 5′-[…]-3′; SJ3, 5′-[…]-3′ and 5′-[…]-3′; and 18S, 5′-[…]-3′ and 5′-[…]-3′.
The anti-tumor activity of MPA has been linked to nucleolar stress. To investigate whether the synergy of MPA on 5-FU is related to nucleolar stress, Applicants tested the anti-tumor effect of 5-FU in combination with two inhibitors (actinomycin D [AMD] and ADR). Both drugs trigger nucleolar disassembly, but differ in that low-dose AMD (0.05 ug/ml) inhibits the activity of RNA polymerase-I, whereas ADR (2 uM) inhibits the activity of RNA polymerase-II. […] To determine how 5-FU and MPA affect the synthesis or processing of pre-rRNAs, Applicants used real-time RT-PCR to measure the amounts of rRNA transcripts with the splice junction-1 (SJ-1), SJ-2, SJ-3, and 18S rRNA sequences (FIG. 3B). […] By contrast, 5-FU alone increases 47S pre-rRNA and decreases the amount of SJ-3-containing transcripts.

nucleostemin = test: Nucleostemin protein level in MDA-MB-231 cells; type: cell-based, human
Text: To test the idea that nucleostemin may be involved in mediating the synergy between MPA and 5-FU, Applicants first confirmed that MPA treatment decreases the protein level of endogenous nucleostemin but not that of GNL3L and Ngp-1, the two nucleostemin homologues in vertebrate (FIG. 4A). […] Applicants noted that cells in the three control groups appear to be more resistant to the 5-FU/MPA-combined treatment than to the parental MDA-MB-231 cells, which may be caused by the G418/puromycin drug selection process.

SMILES	IC50 ([1]; Keratinocyte)	IC50 [1] [nM]	proliferative rate (BrdU labeling) (MDA-MB-231 cells)	amount of pre-rRNA transcripts (SJ-1, SJ-2, SJ-3, 18S), including 47S pre-rRNA (pre-rRNA transcripts)	protein level of endogenous nucleostemin (nucleostemin)	47S pre-rRNA (pre-rRNA transcripts)	amount of SJ-3-containing transcripts (pre-rRNA transcripts)
CC(=O)O[C@H]1C(=O)[C@@]2(C)[C@H]([C@H](OC(=O)c3ccccc3)[C@]3(O)C[C@H](OC(=O)[C@H](O)[C@@H](NC(=O)c4ccccc4)c4ccccc4)C(C)=C1C3(C)C)[C@]1(OC(C)=O)CO[C@@H]1C[C@@H]2O [paclitaxel]	210 nM						
O=C1[O][Pt]2([NH][C@@H]3CCCC[C@H]3[NH]2)[O]C1=O [oxaliplatin]		830					
COc1c(C)c2c(c(O)c1C/C=C(\C)CCC(=O)O)C(=O)OC2 [MPA, mycophenolic acid]	6670 nM		does not decrease	decrease the amount of pre-rRNA transcripts	decreases		
O=c1[nH]cc(F)c(=O)[nH]1 [5-FU, 5-fluorouracil]	1.67 µg/mL		does not decrease			increases	decreases

— patent publication US9492426B2, “Mycophenolic acid analogues as anti-tumor chemosensitizing agents” (Texas A & M University System, priority 2011, dated 2016)
